For orientation: melting point means the temperature of the solid-liquid transition. Consider `O=C(c1ccccc1)c1ccc(OCCc2c[nH]cn2)cc1`, for which the melting point was in the range of 193 to 194 °C.

The compound `O=C1c2cc([N+](=O)[O-])ccc2CC1Br` (stereo not drawn) returned a melting point of 102 to 105 °C.

Turning to `Cc1cc(C)cc(NC(=O)[C@@H](C)N)c1`, the melting point was 134 to 136 °C.

Take `CC(=N)NC(=O)Nc1ccccc1`: the melting point lay in the range of 204 to 206 °C.

Compound `c1cnc(-c2cc(C3CC3)on2)cn1` displayed a melting point of 86 to 91 °C.

`O=C(O)c1cc(Cl)cc(Cl)c1[N+](=O)[O-]` registered a melting point of 190 to 192 °C.

`CC(=O)C1=CCC2C3CCC4CC5OC5CC4(C)C3CCC12C` (stereo not drawn) gave a melting point of 145 to 149 °C.

Regarding `NC(=O)c1sc2ccc(OCc3ccccc3)cc2c1Cl`, the melting point came to 206 °C.

`COCOc1cc(C(=O)OC)[nH]n1`: the melting point was 54 to 55 °C.

`CN1Cc2c(-c3noc(CN4CCCC4)n3)ncn2-c2ccc(F)cc2C1=O`: the melting point was in the range of 158 to 160 °C.

As for `CCCCCCCCCCCCc1ccc2c(c1)C(=O)c1ccccc1C2=O`, the melting point lay in the range of 99 to 105 °C.

In turn, `CCCCOc1ccc(-c2ncc(Br)cn2)cn1` showed a melting point of 134 to 138 °C.

Regarding `Oc1ccc(-c2ncn(CC(O)(Cn3cncn3)c3ccc(F)cc3F)n2)cc1` (stereo not drawn), the melting point was 120 to 127 °C.

Consider `CC(C)(C)c1ccc2[nH]c(=O)c(-c3nnn[nH]3)cc2c1`, for which the melting point lay within 280 to 286 °C.

`CC(C)(C)OC(=O)NC1CCCCCC=CC2CC2(C(=O)NS(=O)(=O)C2CC2)NC(=O)C2CC(OC(=O)c3ccc(Cl)cc3)CN2C1=O` (stereo not drawn) yielded a melting point of 143 to 145 °C.

In turn, `CC(C)NCC(O)Cc1ccc([N+](=O)[O-])c(C2OCCO2)c1` (stereo not drawn) returned a melting point of 97 to 99 °C.

Take `CCCCCCCCCCCCCCCCN(CC(O)CO)C(=O)CCCCC` (stereo not drawn): the melting point came to 38.8 °C.

For `CC(C)CC(NC(=O)CNc1ccc(Cl)cc1)C(=O)NCC#N` (stereo not drawn), the melting point lay within 131 to 134 °C.

`NS(=O)(=O)CCCCCSc1ccc2nccn2n1`: the melting point was in the range of 120 to 121 °C.

`O=C1NCCc2c(OCCc3ccccc3)cccc21`: the melting point was 149 to 150 °C.

`O=C(N[C@H](Cc1ccc(F)cc1)[C@@H](O)c1ccc(F)cc1)C1CCCCC1` (racemic) registered a melting point of 203 to 204 °C.

In turn, `O=C(O)c1c(OCCF)cccc1OCCF` had a melting point of 57 to 58 °C.

Compound `Cc1n[nH]c(NCCCCOc2cccc(CN3CCCCC3)c2)n1` showed a melting point of 138 to 139 °C.

`CC1(C)Cc2c(Cl)c(N)cc(C(=O)O)c2O1` had a melting point of 185 to 187 °C.

In turn, `Cc1cc(F)ccc1-c1nc(N[C@@H](C)CO)nc2c1ccc(=O)n2-c1c(F)cccc1F` returned a melting point of 90 to 95 °C.

As to `C=CCC(C(N)=O)C(N)=O`, the melting point lay in the range of 168 to 169 °C.

Consider `CCCC(=O)c1cnc2c(COC(=O)c3ccc(OC)cc3)cccc2c1Nc1ccc(O)cc1C`, for which the melting point was 171 to 175 °C.

As to `CC1(CN2CCN(Cc3ccc(C(F)(F)F)cc3)C(=O)C2)Cn2cc([N+](=O)[O-])nc2O1` (stereo not drawn), the melting point is 88 to 93 °C.

For the compound `Cc1nc2cccc(OCC(C)(C)NC(=O)C3CCC3)c2c(N)c1C(=O)O`, the melting point is 186 to 190 °C.

Compound `CCN(CC)C(=O)n1c(C(=O)C(C)(C)c2ccc(Cl)cc2)cc2cc(OC)ccc21` returned a melting point of 172 to 175 °C.

In turn, `CC(C)(C)OC(=O)Nc1cc(OCC#N)c(-c2ccc(F)cc2)cc1N` came in with a melting point of 118 to 119 °C.

The compound `CC=C(NC(=O)C1CC1(Cl)Cl)C(=O)O` (stereo not drawn) yielded a melting point of 188 to 190 °C.

`COC(=O)[C@H](CCCCNC(=O)c1ccc(C(=O)c2ccccc2)cc1)n1c2ccccc2c2ccccc21` gave a melting point of 65 °C.

With `O=C1CC(=O)C2C3C=CC(C3)C12` (stereo not drawn), the melting point worked out at 183 °C.

Turning to `COc1ccc2nc(-c3cccc(C)c3)c(-c3ccnc(NC4CCCCC4)c3)n2n1`, the melting point is 188 to 189 °C.

For `COc1ccccc1CCCNc1ccc(C(=O)O)cc1`, the melting point was 155 to 157 °C.

For the compound `O=c1[nH]c2cc(Cl)ccc2c(=O)n1CCCN1CC=C(c2ccc(Cl)cc2)CC1`, the melting point was 225 to 227 °C.

For the compound `CN(C)S(=O)(=O)NC1CCC(CCN2CCN(c3nccc4c3OCC4)CC2)CC1` (stereo not drawn), the melting point worked out at 128 °C.

`Cc1ncc(CC(=O)O)s1` came in with a melting point of 144 °C.

Regarding `O=[N+]([O-])C(CO)(CO)c1ccccc1`, the melting point was 96 to 97.5 °C.

For `Nc1nc2ccccc2c2c1ncn2CCOCC#Cc1nccs1`, the melting point fell in the range of 157 to 159 °C.

Regarding `CCCCCCCCC1C=CC(C(=O)c2ccc(C(=O)O)o2)=C2N=C3CCCCC3=C21` (stereo not drawn), the melting point fell in the range of 140 to 142 °C.

For the compound `N#Cc1cc(NC(=O)c2sc3ccccc3c2Cl)ccc1N1CCC(N2CCOCC2)CC1`, the melting point fell in the range of 227 to 228 °C.

For `N#CSc1cc(Cl)c(NCCC(=O)O)cc1Cl`, the melting point lay in the range of 133 to 135 °C.

`O=C(O)CCc1cccc(OCc2nc(-c3ccccc3)c(-c3ccccc3)o2)c1`: the melting point lay within 118 to 120 °C.

As for `COC(=O)c1ccc(C#C[Si](C)(C)C)cn1`, the melting point stood at 45 °C.

Compound `CC1(C(CCO)C(N)=O)OCCc2c1[nH]c1ccccc21` (stereo not drawn) gave a melting point of 159 to 161 °C.

Consider `COc1ccc(C(OCC2OC(n3cnc4c(NC(=O)c5ccccc5)ncnc43)C(O)C2O[Si](C)(C)C(C)(C)C)(c2ccccc2)c2ccccc2)cc1` (stereo not drawn), for which the melting point was 189 °C.

In the case of `Cc1nc(C)c(-c2ccnc(Nc3cccc(CN)c3)n2)s1`, the melting point fell in the range of 183 to 184 °C.

Regarding `Nc1c(NCCCOc2cccc(C=O)c2)c(=O)c1=O`, the melting point lay within 203 to 206 °C.

Compound `CS(=O)c1ccc(-c2nn(Cc3ccc(Cl)cc3Cl)c(=O)cc2-c2ccc(Cl)cc2)cc1` (stereo not drawn) returned a melting point of 236 to 237 °C.

In the case of `CCCc1nc2c(N)nc3cccnc3c2n1CCCCCC(=O)N1CCOCC1`, the melting point was in the range of 148 to 150 °C.

Consider `CCCC(=O)Nc1ccc(N2CCC(NC[C@H](O)COc3cccc4[nH]c5ccccc5c34)CC2)cc1`, for which the melting point was in the range of 194 to 199 °C.

For the compound `COCCNC(=O)c1cc(F)cc(-c2cccc3c(F)c(Cc4cccc(C(F)(F)F)c4)sc23)c1`, the melting point fell in the range of 109 to 110 °C.

`O=C(O)c1cc(C(c2cc(F)ccc2F)S(=O)(=O)c2ccc(Cl)cc2)c(Cl)cn1` (stereo not drawn) came in with a melting point of 94 to 96 °C.

Turning to `COc1ccc(CCn2cnc3ccc(-c4cccc(C(=O)NCCN5CCCC5)c4)nc32)cc1OC`, the melting point lay in the range of 106 to 107 °C.

On to `Cc1onc(-c2ccccc2)c1COc1ccc(-c2cc(O)c(SCCc3ccccc3)c(=O)o2)cc1`, for which the melting point was 126 to 128 °C.

`COc1ccc(C(C)C)cc1-c1cc(C(=O)NC2CCN(C(=O)OC(C)(C)C)C2)c(OCc2ccccc2)cc1OCc1ccccc1` (stereo not drawn) returned a melting point of 151 to 154 °C.

`O=C1c2ccccc2C(=O)c2sc(-c3ccc(CO)o3)nc21`: the melting point was more than 260 °C.

`CCOC(=O)c1ccc(C(=O)c2c(N)sc3c2CCN(C(=O)OCc2ccccc2)C3)cc1` gave a melting point of 195 to 196 °C.

With `COc1cccc2c1CCCC2n1cc[nH]c1=S` (stereo not drawn), the melting point was in the range of 176 to 177 °C.

`O=Cc1ncn2cc(Br)sc12` had a melting point of 200 to 201 °C.

As to `CCCN(CCCc1c[nH]c2ccc(OC)cc12)C1COc2c(F)ccc(C(N)=O)c2C1` (stereo not drawn), the melting point is 145 to 152 °C.

Regarding `COc1ccc(CN(C)CCCc2ccc(NC(=O)c3cccc4c(=O)c5cccc(OC)c5[nH]c34)cc2)cc1OC`, the melting point worked out at 180 °C.

For the compound `Cc1sc(-c2ccccc2)nc1COc1ccc(CCCC(O)C#N)cc1` (stereo not drawn), the melting point lay within 101 to 102 °C.

As for `CC(C)(C)c1cc(Sc2n[nH]c(=S)o2)cc(C(C)(C)C)c1O`, the melting point lay in the range of 129 to 131 °C.

Take `CC(=O)NCC1CN(c2ccc(N3CCN(C(=O)CCC(=O)c4ccc(CN5CCOCC5)cc4)CC3)c(F)c2)C(=O)O1` (stereo not drawn): the melting point was 178 to 179 °C.

In turn, `O=C(c1cc(N2CCCCC2)ccn1)N(O)CCCc1ccccc1` gave a melting point of 125 to 130 °C.

As for `O=C(O)c1ccc(OCCNC(=O)C2Cc3ccccc3N2S(=O)(=O)c2ccc(-c3ccc(F)cc3Cl)cc2)cc1` (stereo not drawn), the melting point came out at 90 °C.

Regarding `CC1(C)Oc2ccc(S(=O)(=O)c3ccccc3)cc2[C@@H](N2CCCC2=O)[C@@H]1O` (relative stereo), the melting point was 200 to 201 °C.

In turn, `CCNc1ccc2nc(Cl)c(S(N)(=O)=O)n2n1` showed a melting point of 218 to 220 °C.

As for `CC1=Nc2c(Br)cc(Br)cc2S(=O)(=O)N1`, the melting point was 287 to 289 °C.

As to `O=C(Nc1cnc2scnc2c1)c1cc2cc(F)ccc2n1Cc1cccc(F)c1`, the melting point lay within 250 to 251 °C.

In the case of `CC(=O)NCC1CC1c1cccc2nc(C)nn12` (stereo not drawn), the melting point was 124 to 126 °C.

Regarding `N#Cc1ccc2c(c1)C(=O)c1cc3c(cc1OC2)OCO3`, the melting point fell in the range of 217 to 220 °C.

For the compound `N#Cc1c(N2CCCC2)cc(-c2ccc(Cl)cc2)c2c1Cc1ccccc1-2`, the melting point lay within 197 to 199 °C.

Regarding `CN(C)Cc1cc(CSCCNc2ncc([N+](=O)[O-])c(=O)[nH]2)cs1`, the melting point fell in the range of 150 to 153 °C.

Compound `Cc1nc(-c2ccc(C(F)(F)F)cc2)sc1CSc1cc(C(C)C)c(OCC(=O)O)c(C(C)C)c1` returned a melting point of 161 to 163 °C.

The compound `CCCCCNC(=O)c1cc(N2CCN(C(=O)c3ccccc3C(F)(F)F)CC2)nn1C(=O)OCc1ccccc1` had a melting point of 58 to 61 °C.

Turning to `COc1ccc(COc2cccc(C(=O)Nc3ccc(S(C)(=O)=O)cc3)c2)cc1`, the melting point is 173 to 174 °C.

The compound `CC(=O)Nc1ccc(S(=O)(=O)Nc2cccc(N(C)C(C)=O)c2)cc1` yielded a melting point of 258 to 260 °C.

`Cc1cc(OCc2cnc(-c3cccc(C(F)(F)F)c3)nc2C2CC2)ccc1OC(C)(C)C(=O)O` yielded a melting point of 175 to 176 °C.

Compound `COC(=O)C(NC(=O)OCc1ccccc1)OC` (stereo not drawn) showed a melting point of 74 to 75 °C.

The compound `Fc1nccn1C(c1ccccc1)(c1ccccc1)c1ccccc1` registered a melting point of 182 to 185 °C.

As for `Nc1ccc(N2CCN(CCCC3CCCC3)C2=O)cc1`, the melting point lay within 97 to 99 °C.

On to `OC1CCN(c2ccncc2)CC1`, for which the melting point was 155 to 156 °C.

In the case of `CCCOc1ccc(C(=O)CCC(=O)O)cc1`, the melting point is 116 to 117 °C.

The compound `N#Cc1ccc(NC(=O)OCc2cccnc2)cc1` yielded a melting point of 205 to 207 °C.

Source of the values: a melting point compilation (Tetko et al.; mined from patent text by program, amines drawn as free bases though some values may be those of a salt).
